Measurements taken from patent publication US10752584B2 (EMORY UNIVERSITY, priority 2016, dated 2020).
Entries after “also recorded” stand apart in the source; their conditions may differ. Read-outs that look alike come from different tables or passages of the source.

Columns and labels:
[1] = test system: nuclear DNA in HepG2 cells; experiment: Mitochondrial toxicity assay in HepG2 cells: nuclear DNA; type: cell-based
Source text: (§1) A real-time PCR assay to accurately quantify mitochondrial DNA content has been developed (see Stuyver L J, Lostia S, Adams M, Mathew J S, Pai B S, Grier J, Tharnish P M, Choi Y, Chong Y, Choo H, Chu C K, Otto M J, Schinazi R F. Antiviral activities and cellular toxicities of modified 2′,3′-dideoxy-2′,3′-didehydrocytidine analogs. Antimicrob. Agents Chemother. 2002; 46: 3854-60). This assay was used in all studies described in this application that determine the effect of compounds on mitochondrial DNA content. In this assay, low-passage-number HepG2 cells were seeded at 5,000 cells/well in collagen-coated 96-well plates. Test compounds were added to the medium to obtain final concentrations of 0 μM, 0.1 μM, 10 μM and 100 μM. On culture day 7, cellular nucleic acids were prepared by using commercially available columns (RNeasy 96 kit; Qiagen). […] The mitochondrial cytochrome c oxidase subunit II (COXII) gene and the β-actin or rRNA gene were amplified from 5 μl of the eluted nucleic acids using a multiplex Q-PCR protocol with suitable primers and probes for both target and reference amplifications. For COXII the following sense, probe and antisense primers were used, respectively: 5′-TGCCCGCCATCATCCTA-3′, 5′-tetrachloro-6-carboxyfluorescein-[…]-TAMRA-3′ and 5′-[…]-3′. For exon 3 of the β-actin gene (GenBank accession number E01094) the sense, probe, and antisense primers are 5′-GCGCGGCTACAGCTTCA-3′, 5′-6-[…]-3′ and 5′-[…]-3′, respectively. The primers and probes for the rRNA gene are commercially available from Applied Biosystems. Since equal amplification efficiencies are obtained for all genes, the comparative CT method was used to investigate potential inhibition of mitochondrial DNA synthesis. The comparative CT method uses arithmetic formulas in which the amount of target (COXII gene) is normalized to the amount of an endogenous reference (the β-actin or rRNA gene) and is relative to a calibrator (a control with no drug at day 7). The arithmetic formula for this approach is given by 2−ΔΔCT, where ΔΔCT is (CT for average target test sample CT for target control)−(CT for average reference test−CT for reference control) (see Johnson M R, K Wang, J B Smith, M J Heslin, R B Diasio. Quantitation of dihydropyrimidine dehydrogenase expression by real-time reverse transcription polymerase chain reaction. Anal. Biochem. 2000; 278:175-184). A decrease in mitochondrial DNA content in cells grown in the presence of drug indicated mitochondrial toxicity.
(§2) The effect of compounds 7 and 9 on the levels of mitochondrial and nuclear DNA, and lactic acid production was evaluated in HepG2 cells (14-day assay), and the data is tabulated below in Table 2: […]

[2] = test system: wild type HBV; experiment: Anti-HBV assay in AD-38 cell line; type: cell-based; conditions: Hepatitis B virus, AD-38 cells, HBV in culture supernatant; for EC50: read-out: Anti-HBV activity EC50; for EC90: read-out: Anti-HBV activity EC90
Method: The anti-HBV activity of the compounds was determined by treating the AD-38 cell line carrying wild type HBV under the control of tetracycline (see Ladner S. K., Otto M. J., Barker C. S., Zaifert K., Wang G. H., Guo J. T., Seeger C. & King R. W. Antimicrob. Agents Chemother. 1997, 41, 1715-20). Removal of tetracycline from the medium [Tet (−)] results in the production of HBV. The levels of HBV in the culture supernatant fluids from cells treated with the compounds were compared with that of the untreated controls. Control cultures with tetracycline [Tet (+)] were also maintained to determine the basal levels of HBV expression. 3TC was included as positive control.
The median effective concentrations (EC50) ranges of several of the compounds described herein against HBV are shown in Table 3: […]

[3] = test system: mitochondrial DNA (COXII gene) in HepG2 cells; experiment: Mitochondrial toxicity assay in HepG2 cells: mitochondrial DNA; type: cell-based; conditions: for IC50: read-out: IC50 MtDNA
Source text: as §1, §2

[4] = test system: HepG2 cells; experiment: Lactic acid production in HepG2 cells; type: cell-based; conditions: 14-day assay, 10 μM
Method: To measure the effects of the compounds on lactic acid production, HepG2 cells from a stock culture were diluted and plated in 12-well culture plates at 2.5×10^4 cells per well. Various concentrations (0 μM, 0.1 μM, 1 μM, 10 μM and 100 μM) of compound were added, and the cultures were incubated at 37° C. in a humidified 5% CO2 atmosphere for 4 days. At day 4, the number of cells in each well was determined and the culture medium collected. The culture medium was then filtered, and the lactic acid content in the medium was determined using a colorimetric lactic acid assay (Sigma-Aldrich). Since lactic acid product can be considered a marker for impaired mitochondrial function, elevated levels of lactic acid production detected in cells grown in the presence of test compounds would indicate a drug-induced cytotoxic effect.
as §2

[5] = target: T1, HBV Cp149 capsids (Hepatitis B virus genotype D subtype adw, UniProt P03147); experiment: Disruption of already-formed capsids, electron micrographs; type: biochemical; conditions: 25 μM compound, overnight at 4°, FIG. 2-4
T1 construct: hepatitis B virus core C-terminally truncated protein (HBV Cp149); made in house
Method: The next question was whether these compounds could disrupt already-formed capsids. Accordingly, the capsids were formed as discussed above (incubation of isolated HBV Cp149 with 300 mM NaCl, stored overnight at 4°). Then, the capsids were incubated with the putative compound (overnight at 4°), and electron micrographs were then taken.

[6] = target: T2, HBV Cp149 (Hepatitis B virus genotype D subtype adw, UniProt P03147); experiment: Capsid formation assay, electron micrographs; type: biochemical; conditions: 25 μM compound
T2 construct: hepatitis B virus core C-terminally truncated protein (HBV Cp149); made in house
Method: In the absence of compounds which disrupt capsid formation, hepatitis B virus core C-terminally truncated protein (HBV Cp149, protein isolated by reported methods [Zlotnick, A et al; Biochem 1996, 35, 7412-7421] normally assembles into an HBV Cp149 capsid. The purpose of this example was to determine whether putative active agents would disrupt capsid formation, and thus be active as anti-HBV agents. Putative active agents were incubated at a concentration of 25 μM for 1 h at 4° C. with HBV Cp149 at a concentration of 10 μM. Capsid assembly was then promoted by adding 300 mM NaCl, and storing the mixture overnight at 4°. Negative-stain electron micrographs were collected using a JEOL JEM-1400 120 kV electron microscope using uranyl acetate as a contrast agent.

[7] = Cellular toxicity assay in HepG2 cells; type: cell-based; conditions: human, read-out: Cytotoxicity
Method: (§3) The toxicity of the compounds was assessed in Vero, human PBM, CEM (human lymphoblastoid), MT-2, and HepG2 cells, as described previously (see Schinazi R. F., Sommadossi J.-P., Saalmann V., Cannon D. L., Xie M.-Y., Hart G. C., Smith G. A. & Hahn E. F. Antimicrob. Agents Chemother. 1990, 34, 1061-67). Cycloheximide was included as positive cytotoxic control, and untreated cells exposed to solvent were included as negative controls. The cytotoxicity IC50 was obtained from the concentration-response curve using the median effective method described previously (see Chou T.-C. & Talalay P. Adv. Enzyme Regul. 1984, 22, 27-55; Belen'kii M. S. & Schinazi R. F. Antiviral Res. 1994, 25, 1-11).

[8] = Cellular toxicity assay in human PBM cells; type: cell-based; conditions: human, human PBM cells, read-out: Cytotoxicity
Method: as §3

[9] = Cellular toxicity assay in Vero cells; type: cell-based; conditions: African green monkey, read-out: Cytotoxicity
Method: as §3

[10] = Cellular toxicity assay in CEM cells; type: cell-based; conditions: human, CEM lymphoblastoid cells, read-out: Cytotoxicity
Method: as §3

[11] = HepG2 cells, 14-day assay, 10 μM

T2 sequence (P03147 1-149): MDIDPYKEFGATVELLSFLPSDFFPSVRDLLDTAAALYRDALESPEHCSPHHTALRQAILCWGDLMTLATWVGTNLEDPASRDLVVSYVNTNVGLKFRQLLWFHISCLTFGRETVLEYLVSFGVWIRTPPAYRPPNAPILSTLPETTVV
T1 sequence (P03147 1-149): as above

| SMILES | EC50 [2] [µM] | EC90 [2] [µM] | CC50 [7] [µM] | CC50 [8] [µM] | CC50 [9] [µM] | CC50 [10] [µM] | further results |
| --- | --- | --- | --- | --- | --- | --- | --- |
| Nc1ccn([C@@H]2CS[C@H](CO)O2)c(=O)n1 [Compound 3TC, lamivudine, reference compound] | 0.1 to 0.9 | 1 to 9 | – | – | – | – | IC50 ([1]; Homo sapiens, 336 h, HepG2 cells, 14-day assay): > 10 µM; inhibition at 10 µM ([1]; Homo sapiens, HepG2, 336 h, read-out: % inhibition nDNA): 29.6%; MtDNA (% of control) [3, 11]: 130 (85.7-196) % of control; inhibition at 10 µM ([3]; Homo sapiens, HepG2, 336 h, read-out: % inhibition MtDNA): 8.8%; IC50 ([3]; Homo sapiens, HepG2, 336 h): > 10 µM; Lactic acid production (% of control) [4]: 94 ± 20.8 % of control |
| Nc1ccn([C@H]2CC[C@@H](CO)O2)c(=O)n1 [ddC, reference compound] | – | – | – | – | – | – | IC50 ([1]; HepG2 cells, 14-day assay): < 10 µM; % inhibition nDNA [1, 11]: 52.4%; MtDNA (% of control) [3]: 5.3 (5.0-5.8) % of control; % inhibition MtDNA [3, 11]: 97.4%; IC50 ([3]; HepG2 cells, 14-day assay): < 10 µM; Lactic acid production (% of control) [4]: 196 ± 73.0 % of control |
| CCOC(=O)C1=C(CN2CCOCC2)NC(c2nccs2)=NC1c1ccc(F)cc1Br (stereo not shown) [GLS4, Morphothiadine mesilate] | – | – | – | – | – | – | Effect on already-formed capsids [5]: misassembled hollow spheres; also recorded: the capsids were disrupted; Effect on capsid formation ([6]; 10 μM HBV Cp149, 300 mM NaCl, FIG. 1): misassembled hollow spheres; also recorded: capsid formation was disrupted; Size of the hollow spheres formed ([6]; 10 μM HBV Cp149, vehicle approximately 40 nm): 80-100 nm |
| Cc1c(C(=O)C(=O)Nc2nccs2)c(C)n(C)c1C(=O)Nc1ccc(F)c(F)c1 [Compound 78, N-(3,4-difluorophenyl)-1,3,5-trimethyl-4-(2-oxo-2-(thiazol-2-ylamino)acetyl)-1H-pyrrole-2-carboxamide] | 0.001 to 0.009 | 0.01 to 0.09 | 84 | > 100 | > 100 | 15 | – |
| Cc1c(C(=O)C(=O)NCc2ccccn2)c(C)n(C)c1C(=O)Nc1ccc(F)c(F)c1 [Compound 47, N-(3,4-difluorophenyl)-1,3,5-trimethyl-4-(2-oxo-2-((pyridin-2-ylmethyl)amino)acetyl)-1H-pyrrole-2-carboxamide] | 0.01 to 0.09 | 0.1 to 0.9 | 35 | > 100 | 51 | 47 | – |
| C#CCNC(=O)C(=O)c1c(C)c(C(=O)Nc2cccc(OC(F)(F)F)c2)n(C)c1C [Compound 55, 1,3,5-trimethyl-4-(2-oxo-2-(prop-2-yn-1-ylamino)acetyl)-N-(3-(trifluoromethoxy)phenyl)-1H-pyrrole-2-carboxamide] | 0.1 to 0.9 | 1 to 9 | 88 | > 100 | 15 | 38 | – |
| Cc1c(C(=O)C(=O)NCc2nn[nH]n2)c(C)n(C)c1C(=O)Nc1ccc(F)c(F)c1 [Compound 82, 4-(2-(((2H-tetrazol-5-yl)methyl)amino)-2-oxoacetyl)-N-(3,4-difluorophenyl)-1,3,5-trimethyl-1H-pyrrole-2-carboxamide] | 1 to 9 | – | > 100 | > 100 | > 100 | > 100 | – |
| C#CCNC(=O)C(=O)c1c(C)c(C(=O)Nc2cccc(S(F)(F)(F)(F)F)c2)n(C)c1C [Compound 60, 1,3,5-trimethyl-4-(2-oxo-2-(prop-2-yn-1-ylamino)acetyl)-N-(3-(pentafluorosulfanyl)phenyl)-1H-pyrrole-2-carboxamide] | 0.1 to 0.9 | 0.1 to 0.9 | > 100 | 86 | 82 | 23 | – |
| Cc1c(C(=O)C(=O)Nc2ccccc2)c(C)n(C)c1C(=O)Nc1ccc(F)c(F)c1 [Compound 69, N-(3,4-difluorophenyl)-1,3,5-trimethyl-4-(2-oxo-2-(phenylamino)acetyl)-1H-pyrrole-2-carboxamide] | 0.001 to 0.009 | 0.01 to 0.09 | 59 | > 100 | 48 | > 100 | – |
